Measured values taken from the Kinase Knowledgebase extract (Sharma et al. 2016).

target: MAPK14;MAPK11;MAPK12 (human) (UniProt Q16539); experiment: Inhibition of p38 Kinase Activity

| Structure (SMILES) | IC50 [µM] |
| --- | --- |
| CC1(C)[C@H]2CCC(COc3nc(Cl)nc(Nc4ccc5ncsc5c4)n3)[C@@H]1C2 (stereo partly specified) | < 10 |
| CONC(=O)c1ccc(F)c(Sc2nc(N(C)CC(C)(C)C)nc(N3CCCN(C)CC3)n2)c1 | < 30 |
| CC1(C)[C@H]2CC[C@@H](CNc3nc(Nc4ccc5ncsc5c4)nc(N4CCNCC4)n3)[C@@H]1C2 | < 10 |
| COCC(=O)N1CC2CC1CN2c1nc(NCC(C)c2ccccc2)nc(Nc2ccc3ncsc3c2)n1 (stereo unspecified) | < 10 |
| CC1(C)[C@H]2CC[C@H](CNc3nc(Nc4ccc5ncsc5c4)nc(N4CCNCC4)n3)[C@@H]1C2 | < 10 |
| Cc1c(Nc2nc(Cl)nc(NCC(C)c3ccccc3)n2)ccc2ncsc12 (stereo unspecified) | < 10 |
| CNC1CCN(c2cc(NCCOC(C)C)nc(-n3cnc4ccccc43)n2)C1 (stereo unspecified) | < 10 |
| CN(C)c1nc(Nc2ccc3ncsc3c2)nc(NC(C)(C)Cc2ccccc2)n1 | < 10 |
| CC(CNc1nc(Nc2ccc3ncsc3c2)nc(N2CCN(C(=O)C3CCOC3)CC2)n1)c1ccccc1 (stereo unspecified) | < 10 |
| CC(C)OCCNc1cc(N(C)C)nc(-n2cnc3ccccc32)n1 | < 10 |
| CC(CNc1nc(Nc2ccc3ncsc3c2)nc(N2CCN(S(=O)(=O)N(C)C)CC2)n1)c1ccccc1 (stereo unspecified) | < 10 |
| NC(=O)C1CCN(c2cc(Nc3ccc4ncsc4c3)nc(NC3CCC3)n2)CC1 | < 10 |
| c1nc2ccc(Nc3nc(CCC4CCCCC4)nc(N4CCNCC4)n3)cc2s1 | < 10 |
| Clc1nc(Nc2ccc3ncsc3c2)nc(N2CCCC(c3ccccc3)C2)n1 (stereo unspecified) | < 10 |
| CC(CNc1nc(Cl)nc(Nc2ccc3ncsc3c2)n1)c1ccccc1 (stereo unspecified) | < 10 |
| CC(=O)N1CCN(c2nc(Nc3ccc4ncsc4c3)nc(N(C)CC3CCC4CC3C4(C)C)n2)CC1 (stereo unspecified) | < 10 |
| CNCCN(C)c1nc(NCC2CCC3CC2C3(C)C)nc(Nc2ccc3ncccc3c2)n1 (stereo unspecified) | < 10 |
| CC(C)C(=O)N(C)CCCN(C)c1nc(NCC(C)c2ccccc2)nc(Nc2ccc3ncsc3c2)n1 (stereo unspecified) | < 10 |
| CC(CNc1nc(Nc2ccc3ncsc3c2)nc(N2CC3CC2CN3C(=O)c2cccnc2)n1)c1ccccc1 (stereo unspecified) | < 10 |

| Structure (SMILES) | IC50 [µM] |
| --- | --- |
| CNCCN(C)c1nc(NCC(C)c2ccccc2)nc(Nc2ccc3nc(C)sc3c2)n1 (stereo unspecified) | < 10 |
| NC(=O)C1CCN(c2nc(Nc3ccc4ncsc4c3)cc(NC3CCC3)n2)CC1 | < 10 |
| CNC1CCN(c2cc(NCCOC(C)C)nc(-n3cnc4ccc(C)cc43)n2)C1 (stereo unspecified) | < 10 |
| CCNC(=O)N1CCN(c2nc(NCC(C)c3ccccc3)nc(Nc3ccc4ncsc4c3)n2)CC1 (stereo unspecified) | < 10 |
| CC(CNc1cc(N2CCOCC2)nc(Nc2ccc3ncccc3c2)n1)c1ccccc1 (stereo unspecified) | < 10 |
| CONC(=O)c1ccc(F)c(Sc2nc(N[C@@H]3CCNC3)nc(N(C)CC(C)(C)C)n2)c1 | < 30 |
| Cc1ccc(C(N)=O)cc1Sc1nc(NCc2ccccn2)nc(N(C)CC(C)(C)C)n1 | < 30 |
| CC(CNc1nc(Cl)nc(Nc2ccc3ncsc3c2)n1)c1ccc(Cl)cc1 (stereo unspecified) | < 10 |
| CCOC(=O)Nc1ccc(C)c(Nc2nc(N[C@H]3CCNC3)nc(N(C)CC(C)(C)C)n2)c1 | < 1 |
| CC(C)Oc1nc(NCC(C)c2ccccc2)nc(Nc2ccc3ncsc3c2)n1 (stereo unspecified) | < 10 |
| CNCCN(C)c1nc(NCC(C)c2ccccc2)nc(Oc2ccc3ncsc3c2)n1 (stereo unspecified) | < 10 |
| CCONC(=O)c1ccc(C)c(Nc2nc(N[C@H]3CCNC3)nc(N(C)CC(C)(C)C)n2)c1 | < 1 |
| CN(CC1CC[C@H]2C[C@@H]1C2(C)C)c1nc(Nc2ccc3ncsc3c2)nc(N2CCN(C(=O)CCC(=O)O)CC2)n1 (stereo partly specified) | < 10 |
| CONC(=O)c1ccc(C)c(Nc2nc(NCCN3CCOCC3)nc(N(C)CC(C)(C)C)n2)c1 | < 1 |
| NC(=O)c1ccc(N)c(Nc2nc(NC3CCNC3)nc(N3CCCC3)n2)c1 (stereo unspecified) | < 1 |
| C=CCN1CC[C@H](Nc2nc(Nc3cc(C(=O)NCC)ccc3C)nc(N(C)CC3CCCC3)n2)C1 | < 1 |
| Cc1ccc(C(N)=O)cc1Nc1nc(N[C@@H]2CCN(C(C)CO)C2)nc(N(C)CC(C)(C)C)n1 (stereo partly specified) | < 1 |
| CONC(=O)c1ccc(C)c(Nc2nc(NCc3ccccn3)nc(N(C)CC(C)(C)C)n2)c1 | < 1 |
| CC(CN(C)c1nc(Nc2ccc3ncsc3c2)nc(N(C)C)n1)c1ccccc1 (stereo unspecified) | < 10 |

The remaining lines, values ahead:

| IC50 [µM] | Structure (SMILES) |
| --- | --- |
| < 1 | Cc1ccccc1NC(=O)c1ccc(C)c(Nc2nc(N[C@H]3CCNC3)nc(N(C)CC(C)(C)C)n2)c1 |
| < 1 | Cc1ccc(C(N)=O)cc1Nc1nc(NCC23CC4CC(CC(C4)C2)C3)nc(N[C@H]2CCNC2)n1 |
| < 1 | CCN1CC[C@@H](Nc2nc(Nc3cc(C(N)=O)ccc3C)nc(N(C)CC(C)(C)C)n2)C1 |
| < 1 | CCONC(=O)c1ccc(C)c(Nc2cc(N(C)CC(C)(C)C)nc(N3CCCN(C)CC3)n2)c1 |
| < 1 | CC1(C)[C@H]2CC[C@@H](CNc3nc(N4CCCNCC4)nc(N4CCc5ccc([N+](=O)[O-])cc54)n3)[C@@H]1C2 |
| < 1 | Cc1ccc(C(N)=O)cc1Nc1nc(NC2CNC2)nc(N(C)CC(C)(C)C)n1 |
| < 1 | Cc1ccc(C(=O)Nc2ccccc2)cc1Nc1nc(N[C@H]2CCNC2)nc(N(C)CC(C)C)n1 |
| < 1 | Cc1ccc(C(N)=O)cc1Nc1nc(N[C@H]2CCNC2)nc(N(C)C[C@H](C)c2ccccc2)n1 |
| < 1 | CCc1ccc(CN2CC[C@@H](Nc3nc(Nc4cc(C(N)=O)ccc4C)nc(N(C)CC(C)C)n3)C2)cc1 |
| < 1 | CNC(=O)c1ccc(C)c(Nc2nc(N[C@H]3CCNC3)nc(N(C)CC(C)(C)C)n2)c1 |
| < 1 | CC1(C)[C@@H]2CC[C@@H](CNc3nc(Nc4cc(C(N)=O)ccc4Cl)nc(NC4CCNC4)n3)[C@H]1C2 (stereo partly specified) |
| < 1 | Cc1ccc(C(N)=O)cc1Nc1nc(N[C@H]2CCNC2)nc(OCC(C)(C)C)n1 |
| < 1 | CONC(=O)c1ccc(C)c(Nc2nc(N(C)CC(C)(C)C)nc(N3CCN(C)CC3)n2)c1 |
| < 1 | Cc1ccc(C(=O)O)cc1Nc1nc(N[C@H]2CCNC2)nc(N(C)CC(C)(C)C)n1 |
| < 1 | Cc1ccc(C(N)=O)cc1Nc1nc(N[C@H]2CCNC2)nc(N(C)C[C@@H]2CC[C@H]3C[C@H]2C3(C)C)n1 |
| < 1 | Cc1ccc(C(N)=O)cc1Nc1nc(NCc2cccc3ccccc23)nc(N[C@@H]2CCNC2)n1 |
| < 1 | Cc1ccc(C(=O)NCc2ccccc2)cc1Nc1nc(N[C@H]2CCNC2)nc(N(C)CC(C)(C)C)n1 |
| < 1 | Cc1ccc(C(=O)NC(C)C)cc1Nc1nc(N[C@H]2CCNC2)nc(N(C)CC(C)(C)C)n1 |
| < 1 | CCCc1ccc(C(N)=O)cc1Nc1nc(N[C@H]2CCNC2)nc(N(C)CC(C)(C)C)n1 |
| < 1 | Cc1ccc(C(=O)Nc2c(Cl)cccc2Cl)cc1Nc1nc(N[C@H]2CCNC2)nc(N(C)CC(C)(C)C)n1 |
| < 1 | CONC(=O)c1ccc(C)c(Nc2nc(N[C@@H]3CCCNC3=O)nc(N(C)CC(C)(C)C)n2)c1 |
| < 1 | Cc1ccc(C(N)=O)cc1Nc1nc(N[C@H]2CCN(Cc3ccccc3F)C2)nc(N(C)CC(C)C)n1 |
| < 1 | Cc1ccc(C(N)=O)cc1Nc1nc(N[C@H]2CCNC2)nc(N(C)CC(C)(C)C)n1 |
| < 1 | Cc1ccc(C(N)=O)cc1Nc1nc(N[C@H]2CN[C@@H](CO)C2)nc(N(C)CC(C)(C)C)n1 |
| < 1 | Cc1ccc(C(=O)NC(C)C)cc1Nc1nc(N[C@H]2CCNC2)nc(N(C)CC(C)C)n1 |
| < 1 | Cc1cccc(NC(=O)c2ccc(C)c(Nc3nc(N[C@H]4CCNC4)nc(N(C)CC(C)(C)C)n3)c2)c1 |
| < 1 | Cc1ccc(CC2CC(Nc3nc(Nc4cc(C(N)=O)ccc4C)nc(N(C)CC(C)(C)C)n3)CN2)cc1 (stereo unspecified) |

| IC50 [µM] | Structure (SMILES) |
| --- | --- |
| < 1 | Cc1ccc(C(=O)NCC(F)(F)F)cc1Nc1nc(N[C@H]2CCNC2)nc(N(C)CC(C)(C)C)n1 |
| < 1 | Cc1ccc(C(N)=O)cc1Nc1nc(N[C@H]2CCNC2)nc(N(C)CC23CC4CC(CC(C4)C2)C3)n1 |
| < 1 | Cc1ccc(CC2C[C@@H](Nc3nc(Nc4cc(C(N)=O)ccc4C)nc(N(C)CC(C)C)n3)CN2)cc1 (stereo partly specified) |
| < 1 | CONC(=O)c1ccc(C)c(Nc2nc(N(C)CC(C)(C)C)nc(N3CCCNCC3)n2)c1 |
| < 1 | CONC(=O)c1ccc(C)c(Nc2nc(N[C@H]3CCN(C)C3)nc(N(C)CC(C)(C)C)n2)c1 |
| < 1 | Cc1ccc(C(N)=O)cc1Nc1nc(NCC2CCC2)nc(N[C@H]2CCNC2)n1 |
| < 1 | COC[C@H]1C[C@@H](Nc2nc(Nc3cc(C(N)=O)ccc3C)nc(N(C)CC(C)(C)C)n2)CN1 |
| < 1 | Cc1ccc(C(N)=O)cc1Nc1nc(N[C@H]2CCN(C3CCC3)C2)nc(N(C)CC(C)(C)C)n1 |
| < 1 | Cc1ccc(C(N)=O)cc1Nc1nc(NC(C)C2CCCCC2)nc(N2CCNCC2)n1 (stereo unspecified) |
| < 1 | Cc1ccc(C(N)=O)cc1Nc1nc(N[C@H]2CCN(C3CCCC3)C2)nc(N(C)CC(C)(C)C)n1 |
| < 1 | Cc1ccc(C(N)=O)cc1Nc1nc(N[C@H]2CCN(C(C#N)c3ccccc3)C2)nc(N(C)CC(C)C)n1 (stereo partly specified) |
| < 1 | CC(C)CN(C)c1nc(Nc2cc(C(N)=O)ccc2C(F)(F)F)nc(N[C@H]2CCNC2)n1 |
| < 1 | Cc1ccc(C(N)=O)cc1Nc1nc(N[C@H]2CCN(Cc3ccccn3)C2)nc(N(C)CC(C)C)n1 |
| < 1 | Cc1ccc(COC(=O)C(F)(F)F)cc1Nc1nc(N[C@H]2CCNC2)nc(N(C)CC(C)C)n1 |
| < 1 | Cc1ccc(C(N)=O)cc1Nc1nc(N[C@H]2CCCNC2)nc(N(C)CC(C)C)n1 |
| < 1 | Cc1ccc(C(N)=O)cc1Nc1nc(N[C@H]2CCN(Cc3ccc(F)cc3)C2)nc(N(C)CC(C)C)n1 |
| < 1 | Cc1ccc(-c2nnc[nH]2)cc1Nc1nc(N[C@@H]2CCNC2)nc(N(C)CC(C)(C)C)n1 |
| < 1 | Cc1ccc(C(N)=O)cc1Nc1nc(NC2CCN(C(C)(C)C)C2)nc(N(C)CC(C)C)n1 (stereo unspecified) |
| < 1 | Cc1ccc(C(N)=O)cc1Nc1nc(NCC2CCCC2)nc(N[C@H]2CCNC2)n1 |
| < 1 | CC(=O)NCCNc1nc(Nc2cc(C(N)=O)ccc2C)nc(N(C)CC(C)(C)C)n1 |
| < 1 | Cc1ccc(C(N)=O)cc1Nc1nc(N[C@H]2CCN(Cc3ccc(Cl)cc3)C2)nc(N(C)CC(C)C)n1 |
| < 1 | CCCCNC(=O)c1ccc(C)c(Nc2nc(N[C@H]3CCNC3)nc(N(C)CC(C)(C)C)n2)c1 |
| < 1 | CCCNC(=O)N1CC[C@@H](Nc2nc(Nc3cc(C(=O)NOC)ccc3C)nc(N(C)CC(C)(C)C)n2)C1 |
| < 1 | Cc1ccc(C(N)=O)cc1Nc1nc(NC2CCCNC2)nc(N(C)CC(C)(C)C)n1 (stereo unspecified) |
| < 1 | CONC(=O)c1ccc(C)c(Nc2nc(N)nc(N(C)CC(C)(C)C)n2)c1 |
| < 1 | CC(C)CN(C)c1nc(NC2CCN(CC3CCNCC3)C2)nc(NC2CC(C(N)=O)CCC2C)n1 (stereo unspecified) |
